Measured values reported in PMC8387043, “Host Poly(A) Polymerases PAPD5 and PAPD7 Provide Two Layers of Protection That Ensure the Integrity and Stability of Hepatitis B Virus RNA” (Journal of Virology, 2021).

Tests used:
HBV [1] = experiment: Antiviral assay in HepG2.2.15 cells (HBsAg/HBeAg CLIA, secreted HBV DNA qPCR); format: cell-based, hepatitis B virus; conditions: Hepatitis B virus
HBV [2] = experiment: Multiple in vitro HBV replication models (summary statements); format: cell-based; conditions: Hepatitis B virus
Protocol: AB-452 and RG7834 both belong to the dihydroquinolizinones chemical class. The antiviral activities of AB-452 and its diastereomer ARB-169451 were evaluated using multiple in vitro HBV replication models, including HepG2.2.15 cells (which constitutively express HBV through the integrated viral genome), PLC/PRF/5 cells (a patient-derived hepatocellular carcinoma cell line only expressing HBsAg), and HBV-infected HepG2-NTCP cells or primary human hepatocytes (PHHs) in which viral replication was dependent on cccDNA transcription (Table 1).

HSV-1/HSV-2 = experiment: Antiviral selectivity panel, CPE in Vero cells; format: cell-based, herpes simplex virus
Protocol: (§1) HepG2.2.15 (30,000 cells/well) were plated in 96-well collagen-treated plates and incubated at 37°C. Compounds were half-log serially diluted and added in duplicate to 96-well microtiter plates. The plates were incubated for a total duration of 6 days, after which the culture medium was removed for the HBsAg and HBeAg CLIA assays (AutoBio Diagnostics Co., China) performed according to the manufacturer’s instructions. Secreted HBV DNA was extracted (Realtime Ready cell lysis kit; Roche, Mannheim, Germany) and quantified in a qPCR assay (LightCycler 480 SYBR green I master mix; Roche) with the 5′-[…]-3′ (sense) and 5′-[…]-3′ (antisense) primers using the PCR conditions of denaturing at 95°C for 5 min followed by 40 cycles of amplification at 95°C for 15 s and 60°C for 30 s. Antiviral selectivity studies against a panel of different DNA and RNA viruses were performed at ImQuest BioSicences (Frederick, MD, USA). Briefly, test compounds were evaluated using 6 doses, including the highest concentration of 30 μM and five serial half-logarithmic dilutions in triplicate for the antiviral assays.

HCMV = experiment: Antiviral selectivity panel, CPE in MRC-5 cells; format: cell-based, human cytomegalovirus; conditions: Human betaherpesvirus 5, MRC5; MRC-5, CPE
HCV = experiment: Antiviral selectivity panel, luciferase in Huh-7 cells; format: cell-based; conditions: Hepatitis C virus; Huh-7, Luciferase
WNV = experiment: Antiviral selectivity panel, CPE in Vero76 cells; format: cell-based; conditions: West Nile virus, Vero 76
Protocol: as §1

in vitro [3] = format: cell-based; conditions: human
Excerpt: (§2) TABLE 3 Cytotoxicity of AB-452 against cells derived from various tissues | column: AB-452 CC50 (μM)

in vitro [4] = format: cell-based; conditions: human; remark: listed apart in the source
Excerpt: as §2

HBV [5] = experiment: Intracellular HBV pgRNA and sRNA by Northern blotting in HepG2.2.15 cells; format: cell-based, hepatitis B virus; conditions: HepG2.2.15, 48 h, 1,000 nM
Protocol: Total cellular RNA was extracted from HepG2.2.15 or HepAD38 cells treated with or without antiviral compounds using TRIzol reagent according to the manufacturer's directions (Thermo Fisher Scientific, Waltham, MA). Northern blotting was performed as described previously ([1]). Briefly, total RNA was separated in a 1.5% agarose gel and transferred onto an Amersham Hybond-XL membrane (product no. GERPN303S; GE Healthcare, IL, USA). Membranes were probed with an [α-^32P]UTP (PerkinElmer, CT, USA)-labeled minus strand-specific full-length HBV riboprobe (3.2 kb) transcribed from plasmid pSP65_HBV(+) DNA. Membranes were exposed to a phosphoimager screen, and the hybridization signals were quantified using Image Studio software (Li-Cor Biosciences, NE, USA).

HBV RNA poly(A) tails [6] = experiment: HBV poly(A) tail length and composition (NGS) in HepAD38 cells; format: cell-based, hepatitis B virus; conditions: HepAD38, 70 nM
Protocol: RNA metabolism in most eukaryotic mRNAs employs the 3′ deadenylation pathway in which poly(A) tail shortening is often observed prior to mRNA degradation ([38][–][40]). We therefore determined the HBV poly(A) tail length and composition from HepAD38 cells in the presence or absence of AB-452. To amplify the HBV poly(A) tail, G/I (guanosine and inosine nucleotides) tailing was added to the 3′ ends of mRNA transcripts, and the newly added G/I tails were used as the priming sites to synthesize the cDNA that would be used for amplification of HBV poly(A) tails. The lengths and compositions of the amplicons containing the HBV RNA poly(A) tails were analyzed by next-generation sequencing (PacBio Sequel sequencing platform). […] The poly(A) tails amplified from β-actin cDNAs served as the negative control, which was not affected by the treatment (Fig. 3D).
ACTB GSP primers include 5′-[…] -3′ (sense) and 5′-[…] -3′(antisense). Amplified products were used as loading control. […] Accuracy cutoff default was 0.9.

HBV RNA poly(A) tails [7] = experiment: HBV sRNA poly(A) tail NGS in HepG2-NTCP WT and KO clones

## COCCCOc1cc2c(nc1OC)-c1cc(=O)c(C(=O)O)cn1[C@H](C(C)C)C2 [AB-452]
HBV [1]; HepG2-2.2.15, Table 2, read-out: EC50, HBV (HBsAg)
  EC50: 1.2 nM
HBV [1]; HepG2.2.15 cells, read-out: HBV DNA EC50
  EC50: 0.28 ± 0.01 nM
HBV [1]; HepG2.2.15 cells, read-out: HBeAg EC50
  EC50: 2.8 ± 2.1 nM
HBV [1]; HepG2.2.15 cells, read-out: HBsAg EC50
  EC50: 1.4 ± 0.2 nM
HBV [2]; HepG2.2.15, PLC/PRF/5, HepG2-NTCP, PHH, read-out: HBsAg, HBeAg and HBV DNA EC50 (range over models)
  EC50: 0.28 to 6.8 nM
HBV [2]; abstract, read-out: HBsAg EC50 in vitro (range over models)
  EC50: 1.4 to 6.8 nM
HSV-1/HSV-2
  EC50: > 30 µM
HCMV
  EC50: > 30 µM
HCV
  EC50: > 30 µM
WNV
  EC50: > 30 µM
In vitro [3]
  CC50: > 30 µM
In vitro [4]
  CC50: > 30 µM
HBV [5]
  sRNA (%) of untreated controls: ~18%
HBV RNA poly(A) tails [6]; 4 h, untreated around 100
  average HBV RNA poly(A) tail length: 58 nucleotides
HBV RNA poly(A) tails [6]; untreated 64%
  fraction of poly(A) tails containing internal G: 25%
HBV RNA poly(A) tails [7]; WT and P7_KO cells, untreated >136 bp
  poly(A) tail length after treatment: ~60 bp
HBV RNA poly(A) tails [7]; WT and P7_KO cells, untreated ∼50%
  guanylation frequency of sRNA after treatment: ~10%
HBV RNA poly(A) tails [7]; Z14_KO and PAPD5/7_DKO cells, with and without AB-452
  guanosine incorporation: ~10%
